Source: US20170369444A1, “INHIBITORS OF HISTONE DEMETHYLASES” (Gilead Sciences, Inc., priority 2014, published 2017)

Assays:
Format in all cases: biochemical
[1] = molecular target: T1, KDM4C (JMJD2C) (Homo sapiens, UniProt Q9H3R0); test: Histone lysine demethylase AlphaLISA assay, KDM4C; settings: in vitro enzyme, read-out: KDM4C IC50 (HDME Inhibition)
T1 construct: 1-349; host or cells: E. coli
T1 sequence (Q9H3R0 1-349): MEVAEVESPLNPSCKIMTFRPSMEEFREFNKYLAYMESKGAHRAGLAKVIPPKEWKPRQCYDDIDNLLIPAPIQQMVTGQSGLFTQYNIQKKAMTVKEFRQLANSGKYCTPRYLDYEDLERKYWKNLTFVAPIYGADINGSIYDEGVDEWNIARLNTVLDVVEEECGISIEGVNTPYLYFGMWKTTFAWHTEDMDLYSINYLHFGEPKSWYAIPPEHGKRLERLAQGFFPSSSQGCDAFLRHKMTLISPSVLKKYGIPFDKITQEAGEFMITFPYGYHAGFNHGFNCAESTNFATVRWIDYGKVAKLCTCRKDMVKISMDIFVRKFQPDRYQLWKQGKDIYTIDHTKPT
Procedure: Histone lysine demethylase AlphaLISA assays are performed to determine IC50 values. […] Assays are performed analogously to the protocol described by PerkinElmer (Roy et al. PerkinElmer Technical Note: AlphaLISA #12, April 2011).
Assays are performed analogously to the protocol described by PerkinElmer (Roy et al. PerkinElmer Technical Note: AlphaLISA #12, April 2011).
Enzymes (final assay concentration 0.1-2.5 nM) are dissolved in enzyme buffer and incubated for 10 min before 5 μL is added to 5 μL 3% DMSO solutions of compounds in enzyme buffer, incubated for another 10 minutes, before 5 μL substrate solution is added and the reaction mixture is incubated at room temperature. 10 μL acceptor beads, suspended Epigenetic Buffer (Perkin Elmer AL008) from stock, are added and the suspension is incubated in the dark at room temperature, before 10 μL suspension of streptavidin donor beads (Perkin Elmer 6760002) in Epigenetic Buffer is added. After incubation at room temperature in the dark the plates are read.
Substrate solution: Substrate (final assay concentration 50-200 nM), 50 mM Hepes (pH 7.4-8.0), 0.003% Tween-20, 0.1% BS, 25 μM L-Asc, 10 μM α-KG. Enzyme Buffer: 50 mM Hepes (pH 7.4-8.0), 0.003% Tween-20, 0.1% BSA; 5 μM (NH4)2Fe(SO4)2

[2] = molecular target: T2, KDM2B (FBXL10) (Homo sapiens, UniProt Q8NHM5); test: Histone lysine demethylase AlphaLISA assay, KDM2B; settings: in vitro enzyme, read-out: KDM2B IC50 (HDME Inhibition)
T2 construct: 1-650; purchased BPS Bioscience, US; host or cells: Bac (baculovirus/insect cells)
T2 sequence (Q8NHM5 1-650): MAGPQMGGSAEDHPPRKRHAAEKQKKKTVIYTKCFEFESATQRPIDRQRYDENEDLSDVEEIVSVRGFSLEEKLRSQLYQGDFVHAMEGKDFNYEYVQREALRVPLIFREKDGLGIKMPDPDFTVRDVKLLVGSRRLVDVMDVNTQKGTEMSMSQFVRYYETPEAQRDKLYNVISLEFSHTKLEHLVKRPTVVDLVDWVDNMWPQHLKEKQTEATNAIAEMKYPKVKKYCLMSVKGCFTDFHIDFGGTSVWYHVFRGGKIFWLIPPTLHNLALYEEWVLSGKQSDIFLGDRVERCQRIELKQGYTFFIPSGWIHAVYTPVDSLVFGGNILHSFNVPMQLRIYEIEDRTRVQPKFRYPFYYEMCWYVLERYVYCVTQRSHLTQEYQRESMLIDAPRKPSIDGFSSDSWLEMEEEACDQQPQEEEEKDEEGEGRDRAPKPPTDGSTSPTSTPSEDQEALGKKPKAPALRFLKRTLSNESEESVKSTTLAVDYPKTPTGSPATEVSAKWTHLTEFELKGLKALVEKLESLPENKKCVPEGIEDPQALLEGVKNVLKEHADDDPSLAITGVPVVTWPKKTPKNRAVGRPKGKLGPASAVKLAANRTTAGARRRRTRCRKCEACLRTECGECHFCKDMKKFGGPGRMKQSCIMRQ

[3] = molecular target: PHF8 (KDM7) (Homo sapiens, UniProt Q9UPP1); test: Histone lysine demethylase AlphaLISA assay, PHF8; settings: in vitro enzyme, read-out: PHF8 IC50 (HDME Inhibition)
Chain of PHF8 (KDM7) (Q9UPP1 whole entry): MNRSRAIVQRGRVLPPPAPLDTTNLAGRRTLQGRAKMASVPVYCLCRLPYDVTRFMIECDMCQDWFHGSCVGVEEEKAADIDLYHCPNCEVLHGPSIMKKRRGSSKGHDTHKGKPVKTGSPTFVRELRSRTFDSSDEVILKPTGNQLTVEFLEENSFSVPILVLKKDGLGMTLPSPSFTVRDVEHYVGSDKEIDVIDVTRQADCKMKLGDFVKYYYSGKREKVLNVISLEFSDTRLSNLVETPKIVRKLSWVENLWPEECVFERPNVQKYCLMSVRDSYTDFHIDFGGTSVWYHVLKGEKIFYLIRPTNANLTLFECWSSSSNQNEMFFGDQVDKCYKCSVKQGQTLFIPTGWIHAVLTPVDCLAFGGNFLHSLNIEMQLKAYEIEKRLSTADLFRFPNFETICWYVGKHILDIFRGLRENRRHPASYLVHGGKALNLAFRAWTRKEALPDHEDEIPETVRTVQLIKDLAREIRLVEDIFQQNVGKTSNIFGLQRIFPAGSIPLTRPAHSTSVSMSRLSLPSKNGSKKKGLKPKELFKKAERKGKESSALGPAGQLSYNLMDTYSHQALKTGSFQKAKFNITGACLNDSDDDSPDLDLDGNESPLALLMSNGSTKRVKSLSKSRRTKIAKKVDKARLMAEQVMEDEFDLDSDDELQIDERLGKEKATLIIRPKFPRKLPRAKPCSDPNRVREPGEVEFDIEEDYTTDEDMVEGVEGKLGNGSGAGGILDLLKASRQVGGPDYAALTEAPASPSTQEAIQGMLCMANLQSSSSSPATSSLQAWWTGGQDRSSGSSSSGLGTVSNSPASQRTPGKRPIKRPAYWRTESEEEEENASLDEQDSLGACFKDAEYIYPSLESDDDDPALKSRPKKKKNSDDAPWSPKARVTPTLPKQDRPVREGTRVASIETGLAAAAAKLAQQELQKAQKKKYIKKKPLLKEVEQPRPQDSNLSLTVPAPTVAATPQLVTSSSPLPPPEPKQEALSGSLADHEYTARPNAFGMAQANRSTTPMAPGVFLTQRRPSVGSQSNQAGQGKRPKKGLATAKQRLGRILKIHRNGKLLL

[4] = molecular target: T3, KDM6A (UTX) (Homo sapiens, UniProt O15550); test: Histone lysine demethylase AlphaLISA assay, KDM6A; settings: in vitro enzyme, read-out: KDM6A IC50 (HDME Inhibition)
T3 construct: 919-1401; host or cells: E. coli
T3 sequence (O15550 919-1401): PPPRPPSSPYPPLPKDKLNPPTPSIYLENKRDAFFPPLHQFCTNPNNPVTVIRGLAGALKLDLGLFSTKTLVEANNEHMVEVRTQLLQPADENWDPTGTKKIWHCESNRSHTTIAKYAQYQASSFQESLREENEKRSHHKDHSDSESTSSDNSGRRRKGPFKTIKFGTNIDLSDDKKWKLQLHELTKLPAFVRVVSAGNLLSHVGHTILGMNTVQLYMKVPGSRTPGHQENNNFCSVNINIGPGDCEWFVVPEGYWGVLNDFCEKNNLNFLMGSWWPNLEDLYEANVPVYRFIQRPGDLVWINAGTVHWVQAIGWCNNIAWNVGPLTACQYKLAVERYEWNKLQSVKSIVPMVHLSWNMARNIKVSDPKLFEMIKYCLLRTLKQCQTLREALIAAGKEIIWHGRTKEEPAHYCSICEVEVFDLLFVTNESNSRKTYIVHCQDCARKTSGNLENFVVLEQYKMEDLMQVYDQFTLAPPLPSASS

[5] = molecular target: T4, KDM5B (PLU-1) (Homo sapiens, UniProt Q9UGL1); test: Histone lysine demethylase AlphaLISA assay, KDM5B; settings: in vitro enzyme, read-out: KDM5B IC50 (HDME Inhibition)
T4 construct: 1-809; host or cells: E. coli
T4 sequence (Q9UGL1 1-809): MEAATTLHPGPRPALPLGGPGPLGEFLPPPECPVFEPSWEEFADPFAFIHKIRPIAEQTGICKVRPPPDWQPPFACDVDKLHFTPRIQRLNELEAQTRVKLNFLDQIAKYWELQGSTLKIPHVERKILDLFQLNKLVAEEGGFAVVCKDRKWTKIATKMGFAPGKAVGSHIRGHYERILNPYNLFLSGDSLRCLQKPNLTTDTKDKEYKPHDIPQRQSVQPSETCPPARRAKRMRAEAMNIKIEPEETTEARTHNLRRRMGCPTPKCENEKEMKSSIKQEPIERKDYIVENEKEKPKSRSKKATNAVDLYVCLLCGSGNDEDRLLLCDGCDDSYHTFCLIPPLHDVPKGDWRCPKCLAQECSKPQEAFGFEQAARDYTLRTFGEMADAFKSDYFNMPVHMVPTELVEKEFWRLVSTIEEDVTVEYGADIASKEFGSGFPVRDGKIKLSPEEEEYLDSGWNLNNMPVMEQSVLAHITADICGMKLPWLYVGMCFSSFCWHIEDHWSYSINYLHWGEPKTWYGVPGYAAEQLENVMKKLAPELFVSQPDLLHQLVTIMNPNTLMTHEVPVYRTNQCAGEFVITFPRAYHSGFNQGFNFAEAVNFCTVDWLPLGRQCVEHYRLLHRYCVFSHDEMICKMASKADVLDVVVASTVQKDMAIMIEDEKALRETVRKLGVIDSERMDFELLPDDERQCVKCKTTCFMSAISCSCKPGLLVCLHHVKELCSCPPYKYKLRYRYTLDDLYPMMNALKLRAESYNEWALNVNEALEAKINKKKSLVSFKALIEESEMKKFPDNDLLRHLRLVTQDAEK

Row | SMILES | IC50 [1] [nM] | IC50 [2] [nM] | IC50 [3] [nM] | IC50 [4] [nM] | IC50 [5] [nM]
1 | CCN(CC)C(=O)CC(C)NCc1cc(C(=O)O)ccn1 (centres unmarked) [Compound 43, 2-({[1-(diethylcarbamoyl)propan-2-yl]amino}methyl)pyri-dine-4-carboxylic acid] | > 2500 | 250 to 2500 | 250 to 2500 |  | 
2 | COCC(=O)Nc1ccccc1CNC(=O)[C@H](CC(C)C)NCc1cc(C(=O)O)ccn1 [Compound 12, 2-({[(1S)-1-({[2-(2-methoxyacetamido)phenyl]methyl}carbamoyl)-3-methylbutyl]amino}methyl)pyridine-4-carboxylic acid] | > 2500 | 250 to 2500 | 250 to 2500 |  | 
3 | CCN(CC)C(=O)CCN(CC(N)=O)C(C)c1cc(C(=O)O)ccn1 (centres unmarked) [Compound 31, 2-{1-[(carbamoylmethyl)[2-(diethylcarbamoyl)ethyl]amino]ethyl}pyridine-4-carboxylic acid] | > 2500 | > 2500 | > 2500 |  | 
4 | C[C@H](N[C@H](C)c1cc(C(=O)O)ccn1)C(=O)NCc1ccc(CO)cc1 [Compound 16, 2-[(1R)-1-{[(1S)-1-({[4-(hydroxymethyl)phenyl]methyl}carbamoyl)ethyl]amino}ethyl] pyridine-4-carboxylic acid] | > 2500 | 250 to 2500 |  | > 2500 | 
5 | CCN(CC)C(=O)CCN(CCC(=O)N(CC)CC)Cc1cc(C(=O)O)ccn1 [Compound 32, 2-({bis[2-(diethylcarbamoyl)ethyl]amino}methyl)pyri-dine-4-carboxylic acid] | > 2500 | 250 to 2500 | > 2500 |  | 
6 | CC(C)c1ccnc2c1CCC2NCc1cc(C(=O)O)ccn1 (centres unmarked) [Compound 99, 2-({[4-(propan-2-yl)-5H,6H,7H-cyclopenta[b]pyridin-7-yl]amino}methyl)pyri-dine-4-carboxylic acid] | 250 to 2500 | < 250 |  | > 2500 | 
7 | C=CCc1cnc2c(c1)CCC2NCc1cc(C(=O)O)ccn1 (centres unmarked) [Compound 95, 2-({[3-(prop-2-en-1-yl)-5H,6H,7H-cyclopenta[b]pyridin-7-yl]amino}methyl)pyri-dine-4-carboxylic acid] | 250 to 2500 | < 250 | < 250 |  | 
8 | CCNC(=O)C[C@H]1CCN(Cc2cc(C(=O)O)ccn2)C1 [Compound 73, 2-{[(3R)-3-[(ethylcarbamoyl)methyl]pyrrolidin-1-yl]methyl}pyridine-4-carboxylic acid] | > 2500 | 250 to 2500 | 250 to 2500 |  | 
9 | O=C(O)c1ccnc(CNC2CCc3cccnc32)c1 (centres unmarked) [Compound 98, 2-[({5H,6H,7H-cyclopenta[b]pyridin-7-yl}amino)methyl]pyri-dine-4-carboxylic acid] | 250 to 2500 | 250 to 2500 |  |  | < 250
10 | O=C(O)c1ccnc(CNCc2cn(Cc3ccc(F)cc3)c3ccc(F)cc23)c1 [Compound 86, 2-{[({5-fluoro-1-[(4-fluorophenyl)methyl]-1H-indol-3-yl}methyl)amino]methyl}pyridine-4-carboxylic acid] | > 2500 | 250 to 2500 |  | > 2500 | 
11 | CC(C)(C)OC(=O)NCCCC[C@@H](CO)NCc1cc(C(=O)O)ccn1 [Compound 22, 2-({[(2S)-6-{[(tert-butoxy)carbonyl]amino}-1-hydroxyhexan-2-yl]amino}methyl)pyri-dine-4-carboxylic acid] | 250 to 2500 | < 250 |  | > 2500 | < 250

Next, values leading:

Row | IC50 [1] [nM] | IC50 [2] [nM] | IC50 [3] [nM] | IC50 [4] [nM] | IC50 [5] [nM] | SMILES
12 | 250 to 2500 | < 250 | 250 to 2500 | > 2500 | < 250 | COc1ccc([C@@H](C)N2CCC[C@@H](CNCc3cc(C(=O)O)ccn3)C2=O)cc1 [Compound 80, 2-[({[(3S)-1-[(1R)-1-(4-methoxyphenyl)ethyl]-2-oxopiperidin-3-yl]methyl}amino)methyl]pyridine-4-carboxylic acid]
13 | 250 to 2500 | > 2500 | 250 to 2500 | > 2500 | < 250 | Cc1cn2c(n1)CCN(Cc1cc(C(=O)O)ccn1)CC2 [Compound 69, 2-({2-methyl-5H,6H,7H,8H,9H-imidazo[1,2-d][1,4]diazepin-7-yl}methyl)pyridine-4-carboxylic acid]
14 | 250 to 2500 | < 250 | 250 to 2500 | > 2500 | < 250 | CCN1CCC(CNCc2cc(C(=O)O)ccn2)C1=O (centres unmarked) [Compound 39, 2-({[(1-ethyl-2-oxopyrrolidin-3-yl)methyl]amino}methyl)pyridine-4-carboxylic acid]
15 | 250 to 2500 | 250 to 2500 | 250 to 2500 | > 2500 | < 250 | NC(=O)CCN(CC(=O)N1CCCCC1)Cc1cc(C(=O)O)ccn1 [Compound 34, 2-{[(2-carbamoylethyl)[2-oxo-2-(piperidin-1-yl)ethyl]amino]methyl} pyridine-4-carboxylic acid]
16 | 250 to 2500 | < 250 | < 250 | > 2500 |  | O=C(O)c1ccnc(CNC2CCc3cc(Br)cnc32)c1 (centres unmarked) [Compound 103, 2-[({3-bromo-5H,6H,7H-cyclopenta[b]pyridin-7-yl}amino)methyl]pyri-dine-4-carboxylic acid]
17 | 250 to 2500 | 250 to 2500 | 250 to 2500 | > 2500 |  | O=C(O)c1cc(CNCC(=O)N2CCCCC2)ncn1 [Compound 35, 6-({[2-oxo-2-(piperidin-1-yl)ethyl]amino}methyl) pyrimidine-4-carboxylic acid]
18 | < 250 | < 250 |  | > 2500 |  | CCN1CC[C@H](CNCc2cc(C(=O)O)ccn2)C1=O [Compound 106, 2-[({[(3R)-1-ethyl-2-oxopyrrolidin-3-yl]methyl}amino)methyl]pyridine-4-carboxylic acid]
